Source: patent US9938261B2, “Heterocyclic compounds and methods of use thereof” (AMBIT BIOSCIENCES CORPORATION, priority 2011, dated 2018)
Where two headings read alike, the source gives them in different places.

Legend:
[1] = system: M-NFS-60 cells; experiment: M-NFS-60 cell proliferation assay (Alamar Blue); assay type: cell-based, mouse; conditions: read-out: CSF1R M-NFS-60 CTB:IC50
Outline: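 Mouse M-NFS-60 cells growing on 20 ng/mL M-CSF in RPMI/10% FBS were exposed to compounds (9 half-log concentrations, 0.5% DMSO) for 72 h at 37 °C. Viability read by Alamar Blue fluorescence (ex 560/em 590 nm, 3 h). IC50 = 50% proliferation inhibition versus control, mean of duplicates.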

[2] = molecular target: CSF1R (Homo sapiens, UniProt P07333); experiment: Competition binding assay, CSF1R Kd; design: made in house
Outline: (§1)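 Kd values came from eleven-point threefold dilutions of compound, measured by qPCR of kinase eluted from affinity-ligand beads after 1 h equilibrium binding at room temperature. Kinase was either T7-phage fused or HEK-293-expressed with a DNA tag.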

[3] = molecular target: kinase panel containing either 386 or 392 distinct kinases; experiment: Kinase selectivity score S10 from competition binding panel
Outline: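 Compounds at 10 μM competed against immobilised affinity ligands for T7 phage-fused or HEK-293-expressed DNA-tagged kinases, 1 h at room temperature; bound kinase eluted and quantified by qPCR. S10 = fraction of distinct non-mutant kinases with percent of DMSO control below 10.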

[4] = molecular target: T1, KIT (Homo sapiens, UniProt P10721); experiment: Competition binding assay, KIT Kd
T1 construct: made in house
Outline: as §1

[5] = molecular target: T2, PDGFRβ (Homo sapiens, UniProt P09619); experiment: Competition binding assay, PDGFRβ Kd
T2 construct: made in house
Outline: as §1

[6] = molecular target: T3, FLT3 (Homo sapiens, UniProt P36888); experiment: Competition binding assay, FLT3 Kd
T3 construct: made in house
T3 sequence (P36888 27-993): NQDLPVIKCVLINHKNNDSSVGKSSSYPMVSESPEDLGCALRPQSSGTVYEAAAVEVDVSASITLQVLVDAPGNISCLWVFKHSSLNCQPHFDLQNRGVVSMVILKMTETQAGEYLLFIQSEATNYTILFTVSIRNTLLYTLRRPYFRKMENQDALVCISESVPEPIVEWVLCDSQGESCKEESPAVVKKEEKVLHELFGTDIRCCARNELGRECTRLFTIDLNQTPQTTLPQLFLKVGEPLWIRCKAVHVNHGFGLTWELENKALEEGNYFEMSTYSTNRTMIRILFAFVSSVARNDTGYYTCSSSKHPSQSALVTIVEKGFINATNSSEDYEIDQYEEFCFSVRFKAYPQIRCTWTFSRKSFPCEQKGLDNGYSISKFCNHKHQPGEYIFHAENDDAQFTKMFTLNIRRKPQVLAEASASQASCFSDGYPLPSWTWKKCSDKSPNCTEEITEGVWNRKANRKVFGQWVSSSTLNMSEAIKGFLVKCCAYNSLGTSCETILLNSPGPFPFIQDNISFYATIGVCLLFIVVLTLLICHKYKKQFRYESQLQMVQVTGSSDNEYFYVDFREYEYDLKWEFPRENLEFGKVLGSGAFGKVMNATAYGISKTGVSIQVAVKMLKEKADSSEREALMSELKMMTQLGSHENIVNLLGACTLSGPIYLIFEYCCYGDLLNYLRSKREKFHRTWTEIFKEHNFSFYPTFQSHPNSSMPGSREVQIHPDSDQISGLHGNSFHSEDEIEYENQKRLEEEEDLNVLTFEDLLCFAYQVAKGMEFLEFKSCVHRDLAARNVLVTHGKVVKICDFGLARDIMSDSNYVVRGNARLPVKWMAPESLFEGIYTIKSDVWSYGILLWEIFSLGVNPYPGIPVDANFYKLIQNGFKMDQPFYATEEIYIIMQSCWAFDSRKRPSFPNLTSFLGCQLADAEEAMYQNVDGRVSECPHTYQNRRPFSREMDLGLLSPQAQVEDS
Outline: as §1

[7] = Mus musculus, 72 hours incubation, M-CSF 20 ng/mL
[8] = compounds at 10 μM, 386 or 392 distinct kinases
[9] = Mus musculus, M-NFS-60 cell proliferation
[10] = 10 μM, panel of 386 or 392 distinct kinases

Sequence of CSF1R (P07333 20-972): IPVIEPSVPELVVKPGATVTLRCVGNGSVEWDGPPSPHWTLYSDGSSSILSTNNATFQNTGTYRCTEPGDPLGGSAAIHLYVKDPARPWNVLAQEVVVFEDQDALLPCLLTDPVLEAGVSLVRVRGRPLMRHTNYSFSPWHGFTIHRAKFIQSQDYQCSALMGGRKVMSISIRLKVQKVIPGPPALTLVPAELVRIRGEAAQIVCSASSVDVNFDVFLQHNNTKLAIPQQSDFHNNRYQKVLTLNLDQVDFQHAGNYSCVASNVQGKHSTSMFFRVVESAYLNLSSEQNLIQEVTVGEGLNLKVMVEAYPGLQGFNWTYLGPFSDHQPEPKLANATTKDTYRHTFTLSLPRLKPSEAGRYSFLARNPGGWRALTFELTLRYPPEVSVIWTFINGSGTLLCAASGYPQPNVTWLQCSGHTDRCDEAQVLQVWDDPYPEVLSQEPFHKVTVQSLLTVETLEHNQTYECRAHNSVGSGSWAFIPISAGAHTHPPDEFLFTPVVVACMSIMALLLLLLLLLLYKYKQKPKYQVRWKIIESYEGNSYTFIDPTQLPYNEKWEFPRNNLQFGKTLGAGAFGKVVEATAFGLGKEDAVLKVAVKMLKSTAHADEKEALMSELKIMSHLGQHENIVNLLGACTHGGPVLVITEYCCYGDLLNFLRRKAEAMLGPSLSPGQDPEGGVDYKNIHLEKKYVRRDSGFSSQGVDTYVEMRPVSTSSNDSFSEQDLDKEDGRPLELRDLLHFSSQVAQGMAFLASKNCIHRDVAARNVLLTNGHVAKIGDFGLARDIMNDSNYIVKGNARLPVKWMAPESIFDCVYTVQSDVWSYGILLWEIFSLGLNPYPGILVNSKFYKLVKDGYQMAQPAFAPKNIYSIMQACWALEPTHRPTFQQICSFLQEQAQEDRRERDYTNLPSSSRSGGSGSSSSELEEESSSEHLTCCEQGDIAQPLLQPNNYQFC
T1 sequence (P10721 26-976): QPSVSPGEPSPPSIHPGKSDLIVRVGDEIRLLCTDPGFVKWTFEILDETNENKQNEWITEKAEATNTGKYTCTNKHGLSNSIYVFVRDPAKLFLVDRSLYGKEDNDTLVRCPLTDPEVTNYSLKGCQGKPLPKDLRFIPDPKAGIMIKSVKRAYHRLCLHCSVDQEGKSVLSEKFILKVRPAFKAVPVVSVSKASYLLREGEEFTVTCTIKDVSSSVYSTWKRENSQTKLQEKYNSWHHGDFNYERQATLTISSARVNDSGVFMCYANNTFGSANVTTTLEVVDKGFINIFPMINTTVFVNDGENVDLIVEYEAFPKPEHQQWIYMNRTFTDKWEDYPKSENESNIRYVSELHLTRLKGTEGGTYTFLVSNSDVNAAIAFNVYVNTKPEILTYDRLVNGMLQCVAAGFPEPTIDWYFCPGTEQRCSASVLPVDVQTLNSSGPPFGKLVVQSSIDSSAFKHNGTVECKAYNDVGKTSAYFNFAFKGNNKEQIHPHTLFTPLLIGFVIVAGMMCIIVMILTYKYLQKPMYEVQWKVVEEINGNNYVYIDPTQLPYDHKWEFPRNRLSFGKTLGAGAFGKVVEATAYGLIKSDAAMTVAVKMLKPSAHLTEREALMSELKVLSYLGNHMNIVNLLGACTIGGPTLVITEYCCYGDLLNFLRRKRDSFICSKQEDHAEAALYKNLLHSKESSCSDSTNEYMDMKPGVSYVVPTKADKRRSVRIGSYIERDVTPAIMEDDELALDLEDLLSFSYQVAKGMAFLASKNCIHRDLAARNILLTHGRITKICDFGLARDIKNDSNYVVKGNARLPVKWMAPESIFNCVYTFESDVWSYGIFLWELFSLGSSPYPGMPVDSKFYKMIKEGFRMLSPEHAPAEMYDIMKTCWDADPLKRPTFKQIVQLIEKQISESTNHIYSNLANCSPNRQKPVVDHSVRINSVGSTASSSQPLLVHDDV
T2 sequence (P09619 33-1106): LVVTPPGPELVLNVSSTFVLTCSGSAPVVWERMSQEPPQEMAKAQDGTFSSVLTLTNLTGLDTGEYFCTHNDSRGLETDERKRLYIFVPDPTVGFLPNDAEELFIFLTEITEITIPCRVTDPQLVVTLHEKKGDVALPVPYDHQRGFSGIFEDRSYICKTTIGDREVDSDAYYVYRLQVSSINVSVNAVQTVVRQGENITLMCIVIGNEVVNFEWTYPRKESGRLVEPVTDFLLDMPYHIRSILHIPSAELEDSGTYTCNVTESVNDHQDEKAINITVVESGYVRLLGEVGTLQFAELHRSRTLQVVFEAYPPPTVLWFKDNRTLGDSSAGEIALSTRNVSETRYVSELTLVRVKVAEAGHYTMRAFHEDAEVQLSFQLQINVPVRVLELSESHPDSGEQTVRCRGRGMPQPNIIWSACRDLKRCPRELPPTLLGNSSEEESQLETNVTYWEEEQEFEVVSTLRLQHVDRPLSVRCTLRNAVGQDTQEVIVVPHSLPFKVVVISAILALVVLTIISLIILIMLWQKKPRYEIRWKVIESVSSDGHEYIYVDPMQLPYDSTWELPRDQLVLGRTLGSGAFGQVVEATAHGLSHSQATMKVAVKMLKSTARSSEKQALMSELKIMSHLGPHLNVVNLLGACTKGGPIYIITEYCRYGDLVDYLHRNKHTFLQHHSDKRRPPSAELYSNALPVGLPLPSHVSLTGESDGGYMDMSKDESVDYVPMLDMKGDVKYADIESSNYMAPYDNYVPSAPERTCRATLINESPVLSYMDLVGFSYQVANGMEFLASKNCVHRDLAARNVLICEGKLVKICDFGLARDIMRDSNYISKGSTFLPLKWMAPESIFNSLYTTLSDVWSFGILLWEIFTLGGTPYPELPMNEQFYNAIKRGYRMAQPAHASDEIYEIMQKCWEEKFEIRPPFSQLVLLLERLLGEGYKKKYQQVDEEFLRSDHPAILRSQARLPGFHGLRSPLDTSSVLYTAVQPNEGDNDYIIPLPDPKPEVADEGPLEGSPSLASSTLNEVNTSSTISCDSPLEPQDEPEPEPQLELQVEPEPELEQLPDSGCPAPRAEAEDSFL

Row | Kd [2] [nM] | Kinase specificity S(10) [3, 8] | Kd [4] [nM] | Kd [5] [nM] | Kd [6] [nM] | Kd ([2]; competition binding) [nM] | Kinase specificity S(10) [3, 10] | Kd ([4]; competition binding) [nM] | Kd ([5]; competition binding) [nM] | Kd ([6]; competition binding) [nM] | Compound | IC50 [1, 7] [nM] | IC50 [1, 9] [nM] | IC50 ([1]; 72 hours incubation, M-CSF 20 ng/mL) [nM]
1 | 5 to 20 | C (C>0.02) | ≤ 100 | ≤ 50 | ≤ 200 | – | – | – | – | – | C#Cc1cnc2c(c1)ncn2Cc1ccc2nc(N[C@@H]3CCCC[C@H]3O)sc2c1 [Example 96, (1R,2R)-2-((6-((6-ethynyl-3H-imidazo[4,5-b]pyridin-3-yl)methyl)benzo[d]thiazol-2-yl)amino)cyclohexanol] | ≤ 50 | – | –
2 | – | – | – | – | – | 5 to 20 | B (0.01<B≤0.02) | 500 to 2000 | 50 to 500 | 200 to 1000 | O[C@@H]1CCCC[C@H]1Nc1nc2ccc(Cc3cnc4[nH]c5ccccc5n34)cc2s1 [Example 205, (1R,2R)-2-((6-((9H-benzo[d]imidazo[1,2-a]imidazol-3-yl)methyl)benzo[d]thiazol-2-yl)amino)cyclohexanol] | – | 400 to 1500 | –
3 | – | – | – | – | – | 5 to 20 | A (A≤0.01) | 500 to 2000 | 50 to 500 | 1000 to 5000 | C=CCOc1ccn2c(Cc3ccc4nc(N[C@@H]5CCCC[C@H]5O)sc4c3)cnc2c1 [Example 217, (1R,2R)-2-((6-((7-(allyloxy)imidazo[1,2-a]pyridin-3-yl)methyl)benzo[d]thiazol-2-yl)amino)cyclohexanol] | – | 50 to 400 | –
4 | ≤ 5 | C (C>0.02) | ≤ 100 | ≤ 50 | ≤ 200 | – | – | – | – | – | OCC1(CNc2nc3ccc(Cn4cnc5cccnc54)cc3s2)CCCCC1 [Example 76, (1-(((6-((3H-imidazo[4,5-b]pyridin-3-yl)methyl)benzo[d]thiazol-2-yl)amino)methyl)cyclohexyl)methanol] | 50 to 400 | – | –
5 | 5 to 20 | C (C>0.02) | ≤ 100 | ≤ 50 | 200 to 1000 | – | – | – | – | – | O[C@@H]1CCCC[C@H]1Nc1nc2ccc(Cn3cnc4cccnc43)cc2o1 [Example 56, (1R,2R)-2-((6-((3H-imidazo[4,5-b]pyridin-3-yl)methyl)benzo[d]oxazol-2-yl)amino)cyclohexanol] | 50 to 400 | – | –
6 | – | – | – | – | – | 5 to 20 | B (0.01<B≤0.02) | 100 to 500 | ≤ 50 | 1000 to 5000 | Fc1cnc2c(c1)ncn2Cc1ccc2nc(N[C@@H]3CCCC[C@@H]3Cl)sc2c1 [Example 219, N-((1R,2S)-2-chlorocyclohexyl)-6-((6-fluoro-3H-imidazo[4,5-b]pyridin-3-yl)methyl)benzo[d]thiazol-2-amine] | – | 400 to 1500 | –
7 | – | – | – | – | – | ≤ 5 | B (0.01<B≤0.02) | ≤ 100 | ≤ 50 | ≤ 200 | O[C@@H]1CCCC[C@H]1Nc1nc2ccc(Cn3cnc4cc(C5=CCOCC5)cc(F)c43)cc2s1 [Example 208, (1R,2R)-2-((6-((5-(3,6-dihydro-2H-pyran-4-yl)-7-fluoro-1H-benzo[d]imidazol-1-yl)methyl)benzo[d]thiazol-2-yl)amino)cyclohexanol] | – | ≤ 50 | –
8 | ≤ 5 | B (0.01<B≤0.02) | 100 to 500 | 50 to 500 | 1000 to 5000 | – | – | – | – | – | CS(=O)(=O)O.O[C@@H]1CCCC[C@H]1Nc1nc2ccc(Cn3cnc4cccnc43)cc2s1 [Example 3, (1R,2R)-2-((6-((3H-imidazo[4,5-b]pyridin-3-yl)methyl)benzo[d]thiazol-2-yl)amino)cyclohexanol methanesulfonic acid] | 50 to 400 | – | –
9 | – | – | – | – | – | 5 to 20 | A (A≤0.01) | 500 to 2000 | 500 to 2000 | 1000 to 5000 | O[C@@H]1CCCC[C@H]1Nc1nc2ccc(Cc3cnc4cc(-n5nccn5)ccn34)cc2s1 [Example 215, (1R,2R)-2-((6-((7-(2H-1,2,3-triazol-2-yl)imidazo[1,2-a]pyridin-3-yl)methyl)benzo[d]thiazol-2-yl)amino)cyclohexanol] | – | 50 to 400 | –
10 | 5 to 20 | A (A≤0.01) | 100 to 500 | 50 to 500 | 1000 to 5000 | – | – | – | – | – | O[C@@H]1CCCC[C@H]1Nc1nc2ccc(Cn3cnc4cc(Br)ccc43)cc2s1 [Example 100, (1R,2R)-2-((6-((5-bromo-1H-benzo[d]imidazol-1-yl)methyl)benzo[d]thiazol-2-yl)amino)cyclohexanol] | 50 to 400 | – | –
11 | 5 to 20 | A (A≤0.01) | 100 to 500 | ≤ 50 | 1000 to 5000 | – | – | – | – | – | CC(=O)c1cnc2c(c1)ncn2Cc1ccc2nc(N[C@@H]3CCCC[C@H]3O)sc2c1 [Example 73, 1-(3-((2-(((1R,2R)-2-hydroxycyclohexyl)amino)benzo[d]thiazol-6-yl)methyl)-3H-imidazo[4,5-b]pyridin-6-yl)ethanone] | 50 to 400 | – | –
12 | ≤ 5 | B (0.01<B≤0.02) | ≤ 100 | ≤ 50 | 1000 to 5000 | – | – | – | – | – | ON=C1CCCC[C@H]1Nc1nc2ccc(Cn3cnc4cccnc43)cc2s1 [Example 58, (R)-2-((6-((3H-imidazo[4,5-b]pyridin-3-yl)methyl)benzo[d]thiazol-2-yl)amino)cyclohexanone oxime] | 50 to 400 | – | –
13 | ≤ 5 | C (C>0.02) | ≤ 100 | 50 to 500 | ≤ 200 | – | – | – | – | – | COc1cc2ncn(Cc3ccc4nc(N[C@@H]5CCCC[C@H]5O)sc4c3)c2cc1-c1cnn(C)c1 [Example 52, (1R,2R)-2-((6-((5-methoxy-6-(1-methyl-1H-pyrazol-4-yl)-1H-benzo[d]imidazol-1-yl)methyl)benzo[d]thiazol-2-yl)amino)cyclohexanol] | 50 to 400 | – | –
14 | 5 to 20 | C (C>0.02) | ≤ 100 | ≤ 50 | 200 to 1000 | – | – | – | – | – | COc1cc2ncn(Cc3ccc4nc(N[C@@H](C)C5CCCCC5)sc4c3)c2cc1OC [Example 33, (S)—N-(1-cyclohexylethyl)-6-((5,6-dimethoxy-1H-benzo[d]imidazol-1-yl)methyl)benzo[d]thiazol-2-amine] | 50 to 400 | – | –
15 | > 50 | A (A≤0.01) | > 2000 | 500 to 2000 | 1000 to 5000 | – | – | – | – | – | CC(=O)NCc1cnc2c(c1)ncn2Cc1ccc2nc(N[C@@H]3CCCC[C@H]3O)sc2c1 [Example 99, N-((3-((2-(((1R,2R)-2-hydroxycyclohexyl)amino)benzo[d]thiazol-6-yl)methyl)-3H-imidazo[4,5-b]pyridin-6-yl)methyl)acetamide] | > 1500 | – | –
16 | 20 to 50 | A (A≤0.01) | 100 to 500 | 50 to 500 | > 5000 | – | – | – | – | – | O=C1CCCC[C@H]1Nc1nc2ccc(Cn3cnc4cccnc43)cc2s1 [Example 54, (R)-2-((6-((3H-imidazo[4,5-b]pyridin-3-yl)methyl)benzo[d]thiazol-2-yl)amino)cyclohexanone] | 50 to 400 | – | –

Row | Compound | Kd [2] [nM] | Kinase specificity S(10) [3, 8] | Kd [4] [nM] | Kd [5] [nM] | Kd [6] [nM] | Kd ([2]; competition binding) [nM] | Kinase specificity S(10) [3, 10] | Kd ([4]; competition binding) [nM] | Kd ([5]; competition binding) [nM] | Kd ([6]; competition binding) [nM] | IC50 [1, 7] [nM] | IC50 [1, 9] [nM] | IC50 ([1]; 72 hours incubation, M-CSF 20 ng/mL) [nM]
17 | either (1R,2R)-2-((6-((3H-imidazo[4,5-b]pyridin-3-yl)methyl)benzo[d]thiazol-2-yl)amino)-1-methylcyclohexanol or (1S,2R)-2-((6-((3H-imidazo[4,5-b]pyridin-3-yl)methyl)benzo[d]thiazol-2-yl)amino)-1-methylcyclohexanol [Example 60] | 5 to 20 | B (0.01<B≤0.02) | 100 to 500 | ≤ 50 | 1000 to 5000 | – | – | – | – | – | – | – | 50 to 400
